# Measurements published in paper PMC7569882, “A Probeless Capacitive Biosensor for Direct Detection of Amyloid Beta 1-42 in Human Serum Based on an Interdigitated Chain-Shaped Electrode” (Micromachines, 2020).
# System: anti-aβ/SAM/ICE biosensor (anti-aβ antibody MOAB-2)
# Test: Selectivity of biosensor: change in capacitance ΔC with different analytes
# Format: binding
# Details: 1 Hz, in HS; TNF-α 0.5 ng mL^−1, insulin 10^3 ng mL^−1, CRP 10^5 ng mL^−1; n = 3
# Method: Electrical impedance spectroscopy (EIS) (EC-Lab, Sp-200, Bio-Logic Science Instruments, Seyssinet-Pariset, France) was used for the recording of impedance and capacitance of the biosensor in PBS (pH 7.4). The EIS output signal is measured by applying an input voltage of 10 mV in a frequency range from 100 mHz–100 Hz, to the working and reference electrode. To explore the clinical application, the capacitive anti-aβ/SAM/ICE biosensor was employed for the direct detection of aβ 1-42 peptide in HS. Firstly, the pure HS was diluted in 1× PBS buffer at the ratio (1:1000), to avoid matrix effects in the measurement. Next, 1 μg mL^−1 of aβ 1-42 in pure HS was made, and then differential concentrations of aβ from 10^−3 to 10^3 ng mL^−1 were diluted using HS (1:1000). Various concentrations of aβ (10^−3–10^3 ng mL^−1) were incubated in the HS (1:1000) with the biosensor for 20 min, and the capacitance was measured. To verify the selectivity of the anti-aβ/SAM/ICE biosensor, the effects of tumor necrosis factor-alpha (TNF-α, 0.5 ng mL^−1), insulin (10^3 ng mL^−1), and C-reactive protein (CRP, 10^5 ng mL^−1) in HS were characterized using the change in capacitance ΔC value at 1 Hz frequency (Figure 7a). […] Moreover, the fabricated aβ/SAM/ICE biosensors were kept in the refrigerator at 4 °C for storage. Then, the capacitance of the biosensor at 1 Hz was recorded in PBS at 24 °C of room temperature, on the 1st, 2nd, 3rd, 7th, and 14th day after taking it out to check the stability of the biosensor, as shown in Figure 7b.
Molecule,interference with aβ detection,ΔC response (change in capacitance)
TNF-α,no significant interference,did not change much compared to the ΔC response for aβ
"insulin: insulin, interferent in selectivity test",no significant interference,did not change much compared to the ΔC response for aβ
"CRP: C-reactive protein, interferent in selectivity test (protein, UniProt P02741 19-224, looked up) C-reactive protein: QTDMSRKAFVFPKESDTSYVSLKAPLTKPLKAFTVCLHFYTELSSTRGYSIFSYATKRQDNEILIFWSKDIGYSFTVGGSEILFEVPEVTVAPVHICTSWESASGIVEFWVDGKPRVRKSLKKGYTVGAEASIILGQEQDSFGGNFEGSQSLVGDIGNVNMWDFVLSPDEINTIYLGGPFSPNVLNWRALKYEVQGEVFTKPQLWP",no significant interference,did not change much compared to the ΔC response for aβ

# Molecular target: aβ 1-42 peptide
# Test: not given
# Details: Fluorescent; ref [43]; cited from earlier work
# From the text: Table 2 Dissociation constants Kd of the interaction between aβ 1-42 peptide and various binding partners. | column: Kd (nM)
row,Molecule,Kd
1,"CN(C)c1ccc(/C=C/C2=CC(/C=C/c3ccc(N(C)C)cc3)=[O+][B-](F)(F)O2)cc1 [CRANAD-2, (T-4)-((1E,6E)-1,7-bis(4-(dimethylamino)phenyl)-1,6-heptadiene-3,5-dionato-kO^3,kO^5)difluoro-boron]",38.7 nM
2,CN(C)c1ccc(/C=C/C=C/C=C(C#N)C#N)cc1 [DANIR-2c],26.9 nM
3,"N#CC(C#N)=Cc1ccc(-c2ccc(-c3ccc(O)cc3)s2)s1 [NIAD-4, {(50-(p-Hydroxyphenyl)-2,20-bithienyl-5-yl)-methylidene}-propanedinitrile]",10 nM
